Series [1] can be described thus: Hygroscopicity: water uptake on stepwise increase/decrease of relative humidity. It counts as physicochemical. To be noted: for water uptake: value at end of the one hour storage period. The protocol: In these experiments humidity was increased/decreased stepwise. Starting at 0% relative humidity every one hour the humidity level was increased by 10% relative humidity. The gain/loss of weight was recorded continuously. The values given represent the value at the end of the one hour storage period at the indicated relative humidity level.
This water is easily lost, e.g. by storage at a relative humidity of 60% or less.

Series [2] in a line: Storage stability at ambient temperature, measured by HPLC (stability and purity test). It counts as physicochemical. To be noted: samples stored for 4 months at ambient temperature. The protocol:
Stability and Purity Test:
Apparatus: Agilent 11 Series • Column: YMC-Pro C18; 150×4,6 mm, S-5 μm, 120A • Eluent: mobile phase A: 3.884 g of amidosulfonic acid in 1000 g of water; mobile phase B: 3.884 g of amidosulfonic acid in 250 g of water and 588 g of acetonitrile.
Measurement at a wavelength of 220 nm; injection volume 7 μl, oven temperature 40° C., Flow 1.0 ml/min
Sample preparation: approximately 10 mg of a sample of the crystalline form of alogliptin free base are dissolved in 10 ml of acetonitrile and the solution is filled up to 25 ml with water
Run time 20 min • Gradient: […]

Here are results for one molecule from patent US8455639B2, “Crystalline form of an organic compound” (Sandoz AG, priority 2008, dated 2013).

Each structure is given as a SMILES string.

Consider `Cn1c(=O)cc(N2CCC[C@@H](N)C2)n(Cc2ccccc2C#N)c1=O` [2-[6-[3(R)-aminopiperidin-1-yl]-3-methyl-2,4-dioxo-1,2,3,4-tetrahydropyrimidin-1-ylmethyl]-benzonitrile], for which the “change in crystal structure / formation of a hydrated form” value in series [1] (exposed to extremely high relative humidity) was “No change in crystal structure nor the formation of a hydrated form”. In series [1] (in words), the hygroscopicity result was “low hygroscopicity”. Moreover, the water uptake entry in series [1] (stored at about 25° C. for 60 min at a relative humidity of 50%) was “about 0.4 % w/w”; in series [1] (stored at about 90% relative humidity at about 25° C. for 60 min), “about 1.6 % w/w”. In series [2], the “degradation (chemical stability)” value was “no degradation”.
